These are literature values, as cited in patent US20130150444A1, “MODIFIED RELEASE COMPOSITIONS OF MAGNESIUM VALPROATE” (CADILA HEALTHCARE LIMITED, priority 2011, published 2013).

The conditions of the series: in comparison with sodium valproate or valproic acid.

Consider “magnesium 2-propylvalerate [magnesium valproate]”, for which the absorption rate result was “slower and more regular”.
